Structures can show the parent of a compound that is named as a salt.
Each compound was assayed against T1, strychnine insensitive glycine binding site located on the NMDA receptor complex (Rattus norvegicus, UniProt P35439) (assay: affinity for strychnine insensitive glycine binding site located on the NMDA receptor complex (procedure of Kishimoto H. et al)). Conditions: not given.
T1 construct: from tissue; host or cells: central nervous system membranes, rat
Procedure: The potent and selective action of the compound of the invention at the strychnine- insensitive glycine binding site present on the NMDA receptor complex may be readily determined using conventional test procedures. Thus the ability to bind at the strychnine insensitive glycine binding site was determined using the procedure of Kishimoto H et al. J Neurochem 1981, 37 1015-1024. The selectivity of the action of compounds of the invention for the strychnine insensitive glycine site was confirmed in studies at other ionotropic known excitatory amino acid receptors.
The affinity of a compound of the invention for strychnine insensitive glycine binding site located on the NMDA receptor complex was determined using the procedure of Kishimoto H. et al J. Neurochem 1981, 37, 1015-1024. The pKi with representative compounds of the invention are given in […]

Ki [nM]	Structure (SMILES)
2.51	NC(=O)NCc1ccc(NC(=O)/C=C/c2c(C(=O)O)[nH]c3cc(Cl)cc(Cl)c23)cc1 [Example 8, (E)4,6-dichloro-3-[2'-(4'-ureidomethylphenylcarbamoyl)ethenyl]-1-H-indole2-carboxylic acid]
20	O=C(/C=C/c1c(C(=O)O)[nH]c2cc(Cl)cc(Cl)c12)Nc1ccc(CNC(=O)Nc2ccccc2)cc1 [Example 16, (E)4,6-dichloro-3-[2'-(4'-phenylureidomethylphenylcarbamoyl)ethenyl]-1-H-indole 2-carboxylic acid]
1.82	NC(=O)Nc1ccc(NC(=O)/C=C/c2c(C(=O)O)[nH]c3cc(Cl)cc(Cl)c23)cc1 [Example 21, 4,6-dichloro-3-[(E)-2'-(4'-ureidophenylcarbamoyl)ethenyl]-1-H-indole2-carboxylic acid,]
39.8	O=C(/C=C/c1c(C(=O)O)[nH]c2cc(Cl)cc(Cl)c12)Nc1ccc(NC(=O)Nc2ccccc2)cc1 [Example 24, (E)-4,6-dichloro-3-[2'-(4'-phenyl-ureido-phenylcarbamoyl)ethenyl]-1H-indole-2-carboxylic acid]
3.89	CN(C)C(=O)Nc1ccc(NC(=O)/C=C/c2c(C(=O)O)[nH]c3cc(Cl)cc(Cl)c23)cc1 [Example 27, (E)-4,6-dichloro-3-[2'-(4'-dimethyl-ureido-phenylcarbamoyl)ethenyl]-1H-indole-2-carboxylic acid]
2.45	NC(=O)NCc1cccc(NC(=O)/C=C/c2c(C(=O)O)[nH]c3cc(Cl)cc(Cl)c23)c1 [Example 34]
9.12	O=C(/C=C/c1c(C(=O)O)[nH]c2cc(Cl)cc(Cl)c12)Nc1ccc(CNC(=O)NC2CCOCC2)cc1 [Example 39]
3.16	O=C(/C=C/c1c(C(=O)O)[nH]c2cc(Cl)cc(Cl)c12)Nc1ccc(NC(=O)NC2CC2)cc1 [Example 50, 4,6-dichloro-3-[(E)-2'-(4'-cyclopropylureidophenylcarbamoyl)ethenyl]-1-H-indole-2-carboxylic acid sodium salt]
3.89	O=C(/C=C/c1c(C(=O)O)[nH]c2cc(Cl)cc(Cl)c12)Nc1ccc(NC(=O)Nc2cccnc2)cc1 [Example 51, 4,6-dichloro-3-[(E)-2'-(4'-nicotin-3-ylureidophenylcarbamoyl)ethenyl]-1-H-indole2-carboxylic acid]
5.01	O=C(/C=C/c1c(C(=O)O)[nH]c2cc(Cl)cc(Cl)c12)Nc1ccc(NC(=O)NC2CCOCC2)cc1 [Example 52, 4,6-dichloro-3-[(E)-2'-(4'-(-tetrahydropyran-4"-yl)-ureidophenylcarbamoyl)ethenyl]-1-H-indole-2-carboxylic acid sodium salt]

These compounds were tested on NMDA induced convulsions (assay: inhibition of NMDA induced convulsions in the mouse (procedure of Chiamulera C et al)). Conditions: iv, 0.1 mg/kg I.V., generalized seizures induced by intracerebroventricular injection of NMDA in mice.
Type: in vivo
Procedure: The ability of compounds of the invention to inhibit NMDA induced convulsions in the mouse was determined using the procedure of Chiamulera C et al. Psychpharmacology 1990, 102,-551-552. In this test the ability of the compound to inhibit the generalized seizures induced by an intracerebroventricular injection of NMDA in mice was examined. Thus the % inhibition of the NMDA induced convulsions when a compound of the invention was given the dose of 0.1 mg/kg I.V. was determined and representative results obtained for compounds of the invention are given in the following table.

Structure (SMILES)	inhibition in vivo at 0.1 mg/kg [%]
NC(=O)NCc1ccc(NC(=O)/C=C/c2c(C(=O)O)[nH]c3cc(Cl)cc(Cl)c23)cc1 [Example 9, (E)4,6-dichloro-3-[2'-(4'-ureidomethylphenylcarbamoyl)ethenyl]-1-H-indole 2-carboxylic acid,sodium salt]	60
CCNC(=O)NCc1ccc(NC(=O)/C=C/c2c(C(=O)O)[nH]c3cc(Cl)cc(Cl)c23)cc1 [Example 12, (E)4,6-dichloro-3-[2'-(4'-ethylureidomethylphenylcarbamoyl)ethenyl]-1-H-indole 2-carboxylic acid,sodium salt]	50
CCNC(=S)NCc1ccc(NC(=O)/C=C/c2c(C(=O)O)[nH]c3cc(Cl)cc(Cl)c23)cc1 [Example 14, (E)4,6-dichloro-3-[2'-(4'-ethylthioureidomethylphenylcarbamoyl)ethenyl]-1-H-indole 2-carboxylic acid]	30
O=C(/C=C/c1c(C(=O)O)[nH]c2cc(Cl)cc(Cl)c12)Nc1ccc(CNC(=O)Nc2ccccc2)cc1 [Example 16, (E)4,6-dichloro-3-[2'-(4'-phenylureidomethylphenylcarbamoyl)ethenyl]-1-H-indole 2-carboxylic acid]	30
NC(=O)NCCc1ccc(NC(=O)/C=C/c2c(C(=O)O)[nH]c3cc(Cl)cc(Cl)c23)cc1 [Example 19, 4,6-dichloro-3-[(E)-2'-(4'-ureidoethylphenylcarbamoyl)ethenyl]-1-H-indole 2-carboxylic acid,sodium salt]	30
O=C(/C=C/c1c(C(=O)O)[nH]c2cc(Cl)cc(Cl)c12)Nc1ccc(CNC(=O)NC2CC2)cc1 [Example 31, (E)-4,6-dichloro-3-[-2'-(4'-cyclopropyl-ureido-methyl-phenylcarbamoyl)vinyl]-1H-indole-2-carboxylic acid sodium salt]	40
COc1ccc(NC(=O)NCc2ccc(NC(=O)/C=C/c3c(C(=O)O)[nH]c4cc(Cl)cc(Cl)c34)cc2)cc1 [Example 37, (E)-4,6-dichloro-3-{2'-[4'-(4"-methoxy-phenyl-ureidomethyl)-phenylcarbamoyl]ethenyl}-1H-indole-2-carboxylic acid]	50
O=C(/C=C/c1c(C(=O)O)[nH]c2cc(Cl)cc(Cl)c12)Nc1ccc(CNC(=O)NC2CCOCC2)cc1 [Example 40, sodium salt]	40
CCOC(=O)CNC(=O)NCc1ccc(NC(=O)/C=C/c2c(C(=O)OCC)[nH]c3cc(Cl)cc(Cl)c23)cc1 [Example 43]	40
O=C(O)CNC(=O)NCc1ccc(NC(=O)/C=C/c2c(C(=O)O)[nH]c3cc(Cl)cc(Cl)c23)cc1 [Example 44, (E)-4,6-dichloro-3-[2'-(4'-carboxymethylureido-methyl-phenylcarbamoyl)ethenyl]-1H-indole-2-carboxylic acid]	40

Reference: patent US5919811A, “3-Substituted-indole-2-carboxylic acid derivatives as excitatory amino acid antagonists” (Glaxo Wellcome S.p.A., priority 1995, dated 1999)
